SMILES strings stand for the structures. Values joined by “and” are separate entries in the source; they are usually repeats but may differ in a detail not shown here. Equal entries are not always repeated. Inconclusive results and toxic doses are left out.

This test has as its system L1210 leukemia ip in BDF1 mice, survival T/C. The test can be described thus: NCI In Vivo Anticancer Drug Screen. Data for tumor model L1210 Leukemia (intraperitoneal) in B6D2F1 (BDF1) mice. Conditions: endpoint: mean survival time, higher = longer survival. The gist of the method:
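Transplantable tumor model; survival measured in treated vs vehicle control mice. Value = treated/control.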

Setting [1] is: dose: 100.0 mg/kg/injection, schedule: Q04DX003 (ip), vehicle: saline with Tween-80.
[2] abbreviates: dose: 200.0 mg/kg/injection, schedule: Q01DX009 (ip), vehicle: saline with Tween-80.
Setting [3] is: dose: 200.0 mg/kg/injection, schedule: Q04DX003 (ip), vehicle: saline with Tween-80.
[4] abbreviates: dose: 400.0 mg/kg/injection, schedule: Q04DX003 (ip), vehicle: saline with Tween-80.
[5] abbreviates: dose: 100.0 mg/kg/injection, schedule: Q01DX001 (ip), vehicle: saline.
Setting [6] is: dose: 200.0 mg/kg/injection, schedule: Q01DX001 (ip), vehicle: saline.
The mark [7] stands for this setting: dose: 100.0 mg/kg/injection, schedule: Q04DX003 (ip), vehicle: Klucel (hydroxypropylcellulose) (HPC).
Where [8] appears, read: dose: 200.0 mg/kg/injection, schedule: Q04DX003 (ip), vehicle: Klucel (hydroxypropylcellulose) (HPC).
The mark [9] stands for this setting: dose: 400.0 mg/kg/injection, schedule: Q04DX003 (ip), vehicle: Klucel (hydroxypropylcellulose) (HPC).
Where [10] appears, read: dose: 100.0 mg/kg/injection, schedule: Q04DX002 (ip), vehicle: Klucel (hydroxypropylcellulose) (HPC).
Where [11] appears, read: dose: 200.0 mg/kg/injection, schedule: Q04DX002 (ip), vehicle: Klucel (hydroxypropylcellulose) (HPC).
Setting [12] is: dose: 400.0 mg/kg/injection, schedule: Q04DX002 (ip), vehicle: Klucel (hydroxypropylcellulose) (HPC).

`O=C(Nc1ccc(S(=O)(=O)F)cc1)Oc1ccc([N+](=O)[O-])cc1`: the T/C by setting is: (dose: 25.0 mg/kg/injection, schedule: Q01DX009 (ip), vehicle: saline with Tween-80) 92 % of control and 93 % of control; (dose: 50.0 mg/kg/injection, schedule: Q01DX001 (ip), vehicle: saline with Tween-80) 103 % of control; (dose: 50.0 mg/kg/injection, schedule: Q01DX009 (ip), vehicle: saline with Tween-80) 92 % of control and 89 % of control; (dose: 100.0 mg/kg/injection, schedule: Q01DX001 (ip), vehicle: saline with Tween-80) 105 % of control; (dose: 100.0 mg/kg/injection, schedule: Q04DX002 (ip), vehicle: saline with Tween-80) 95 % of control; under setting [1], 93 % of control. The T/C (dose: 200.0 mg/kg/injection, schedule: Q01DX001 (ip), vehicle: saline with Tween-80) is 97 % of control; the T/C under setting [2] is 98 % of control; the T/C (dose: 200.0 mg/kg/injection, schedule: Q04DX002 (ip), vehicle: saline with Tween-80) is 96 % of control; the T/C under setting [3] is 98 % of control; the T/C (dose: 400.0 mg/kg/injection, schedule: Q01DX001 (ip), vehicle: saline with Tween-80) is 105 % of control; the T/C (dose: 400.0 mg/kg/injection, schedule: Q04DX002 (ip), vehicle: saline with Tween-80) was 88 % of control. Moreover, the T/C under setting [4] is 103 % of control.
For the compound `CSc1nnn(C(C)(C)C)n1`, the T/C is 100 % of control (dose: 100.0 mg/kg/injection, schedule: Q01DX001 (ip), vehicle: acetone) and 91 % of control (dose: 200.0 mg/kg/injection, schedule: Q01DX001 (ip), vehicle: acetone).
Regarding `CC1=NN(c2ccc(S(=O)(=O)O)cc2)C(=O)/C1=C/c1ccc(Cl)cc1`, the T/C was 105 % of control (dose: 100.0 mg/kg/injection, schedule: Q01DX009 (ip), vehicle: saline sonified); 100 % of control (dose: 200.0 mg/kg/injection, schedule: Q01DX009 (ip), vehicle: saline sonified); 102 % of control (dose: 200.0 mg/kg/injection, schedule: Q04DX003 (ip), vehicle: saline); 104 % of control (dose: 400.0 mg/kg/injection, schedule: Q01DX009 (ip), vehicle: saline sonified); 98 % of control (dose: 400.0 mg/kg/injection, schedule: Q04DX003 (ip), vehicle: saline).
On to `CSc1nc(Cl)cc2c1ncn2C1OC(CO)C(O)C1O` (stereo unspecified), for which the T/C is 100 % of control (dose: 100.0 mg/kg/injection, schedule: Q01DX005 (ip), vehicle: saline) and 100 % of control (dose: 200.0 mg/kg/injection, schedule: Q01DX005 (ip), vehicle: saline).
Consider `CCN(CC)CCOc1ccccc1Br`, for which the T/C is, setting by setting: (dose: 12.5 mg/kg/injection, schedule: Q04DX003 (ip), vehicle: saline) 97 % of control; (dose: 25.0 mg/kg/injection, schedule: Q01DX009 (ip), vehicle: saline) 95 % of control; (dose: 25.0 mg/kg/injection, schedule: Q04DX003 (ip), vehicle: saline) 96 % of control; (dose: 50.0 mg/kg/injection, schedule: Q01DX009 (ip), vehicle: saline) 98 % of control; (dose: 50.0 mg/kg/injection, schedule: Q04DX003 (ip), vehicle: saline) 97 % of control; (dose: 100.0 mg/kg/injection, schedule: Q04DX003 (ip), vehicle: saline) 100 % of control.
Take `OC1C2COc3nc4ccccc4n3C(O2)C1O` (stereo unspecified): the T/C under setting [5] is 97 % of control and the T/C under setting [6] was 95 % of control.
On to `O=CNc1ccc(C(=O)O)cc1`, for which the T/C (dose: 100.0 mg/kg/injection, schedule: Q01DX009 (ip), vehicle: saline with Tween-80) is 95 % of control; the T/C under setting [2] is 100 % of control; the T/C (dose: 400.0 mg/kg/injection, schedule: Q01DX009 (ip), vehicle: saline with Tween-80) is 95 % of control.
With `Cc1ccc(Nc2c3ccccc3nc3ccccc23)c(C)c1`, the T/C under setting [7] was 96 % of control and the T/C under setting [8] was 100 % of control.
In the case of `CCCCOP(=O)(/C=C(\C#N)C(=O)OCC)OCCCC`, the T/C is 87 % of control under setting [7], 103 % of control under setting [8] and 98 % of control under setting [9].
Regarding `FC(F)(F)c1cccc(-n2nncc2-c2ccccc2)c1`, the T/C is 97 % of control under setting [10], 101 % of control under setting [11] and 97 % of control under setting [12].
As for `c1ccc(NC2CCN(C3(c4ccccc4)CCCCC3)CC2)cc1`, the T/C (dose: 100.0 mg/kg/injection, schedule: Q04DX002 (ip), vehicle: saline) was 100 % of control.
As to `C/C=C(\C)C(=O)Nc1ccc(Cl)c(Cl)c1`, the T/C was 93 % of control (dose: 222.0 mg/kg/injection, schedule: Q01DX Z (ip), vehicle: methylcellulose (MC)); 90 % of control (dose: 333.0 mg/kg/injection, schedule: Q01DX Z (ip), vehicle: methylcellulose (MC)); 98 % of control (dose: 500.0 mg/kg/injection, schedule: Q01DX Z (ip), vehicle: methylcellulose (MC)).
In the case of `Cc1cc(=O)n(Cc2ccccc2)c(=O)[nH]1`, the T/C is 98 % of control under setting [7], 98 % of control under setting [8] and 93 % of control under setting [9].
In the case of `O=C(Nc1ccc(C(=O)O)cc1)Oc1ccc(N(CCCl)CCCl)cc1`, the T/C is 114 % of control (dose: 6.0 mg/kg/injection, schedule: Q01DX009 (ip), vehicle: other); 106 % of control (dose: 6.0 mg/kg/injection, schedule: Q01DX009 (ip), vehicle: saline); 122 % of control (dose: 12.0 mg/kg/injection, schedule: Q01DX009 (ip), vehicle: other); 117 % of control (dose: 12.0 mg/kg/injection, schedule: Q01DX009 (ip), vehicle: saline); 114 % of control (dose: 37.5 mg/kg/injection, schedule: Q01DX001 (ip), vehicle: other); 160 % of control (dose: 48.0 mg/kg/injection, schedule: Q01DX009 (ip), vehicle: other). Also, the T/C runs as follows: (dose: 75.0 mg/kg/injection, schedule: Q01DX001 (ip), vehicle: carboxymethylcellulose (CMC)) 124 % of control; (dose: 75.0 mg/kg/injection, schedule: Q01DX001 (ip), vehicle: other) 121 % of control; (dose: 96.0 mg/kg/injection, schedule: Q01DX009 (ip), vehicle: other) 101 % of control; (dose: 96.0 mg/kg/injection, schedule: Q01DX009 (ip), vehicle: saline) 91 % of control; (dose: 300.0 mg/kg/injection, schedule: Q01DX001 (ip), vehicle: other) 117 % of control.
As to `CC(C)CNS(=O)(=O)c1ncnc2nc[nH]c12`, the T/C (dose: 6.0 mg/kg/injection, schedule: Q01DX Z (ip), vehicle: carboxymethylcellulose (CMC)) is 103 % of control; the T/C (dose: 12.0 mg/kg/injection, schedule: Q01DX Z (ip), vehicle: carboxymethylcellulose (CMC)) was 100 % of control; the T/C (dose: 25.0 mg/kg/injection, schedule: Q01DX Z (ip), vehicle: carboxymethylcellulose (CMC)) was 106 % of control; the T/C (dose: 50.0 mg/kg/injection, schedule: Q01DX Z (ip), vehicle: carboxymethylcellulose (CMC)) is 92 % of control.
On to `COC1OC(CCl)C(OC(=O)c2ccccc2)C(OC(=O)c2ccccc2)C1OC(=O)c1ccccc1` (stereo unspecified), for which the T/C reads like this: under setting [10], 114 % of control; under setting [11], 101 % of control; under setting [12], 104 % of control.
For the compound `CCN(C)CCC(CC=C(C)C)(C(N)=O)c1cccc2ccccc12` (stereo unspecified), the T/C was 100 % of control (dose: 12.5 mg/kg/injection, schedule: Q04DX002 (ip), vehicle: saline) and 87 % of control (dose: 25.0 mg/kg/injection, schedule: Q04DX002 (ip), vehicle: saline).
Turning to `CCOCCCSP(SCCCOCC)SCCCOCC`, the T/C reads like this: (dose: 100.0 mg/kg/injection, schedule: Q01DX009 (ip), vehicle: saline) 101 % of control; (dose: 200.0 mg/kg/injection, schedule: Q01DX009 (ip), vehicle: saline) 102 % of control; (dose: 400.0 mg/kg/injection, schedule: Q01DX009 (ip), vehicle: saline) 104 % of control.
Regarding `CC(=O)N[C@H]1CC[C@H]2[C@@H]3CCC4=CC(=O)CC[C@]4(C)[C@H]3CC[C@]12C`, the T/C was 86 % of control under setting [1], 92 % of control under setting [3] and 86 % of control under setting [4].
Turning to `N=C(N)SCc1ccc(Br)cc1`, the T/C is 104 % of control under setting [5] and 112 % of control under setting [6].
